Measured values published in PubChem BioAssay AID330 (DTP/NCI, 2004).
Several values for one entry are separate records, joined by “and”; a condition that tells them apart may be missing. Equal entries are not always repeated. Toxic doses and inconclusive results are not listed.

Tested on: P388 leukemia ip, CD2F1 mice, survival T/C
Test: NCI In Vivo Anticancer Drug Screen. Data for tumor model P388 Leukemia (intraperitoneal) in CD2F1 (CDF1) mice
Settings: endpoint: median survival time, higher = longer survival
How it was run: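 Mice carrying the transplanted tumor received test compound or vehicle. Survival was recorded in each group, and the value is the treated-group measurement divided by that of the vehicle-treated control group.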

[1] = dose: 50.0 mg/kg/injection, schedule: Q01DX005 (ip), vehicle: saline with Tween-80
[2] = dose: 100.0 mg/kg/injection, schedule: Q01DX005 (ip), vehicle: saline with Tween-80
[3] = dose: 200.0 mg/kg/injection, schedule: Q01DX005 (ip), vehicle: saline with Tween-80
[4] = dose: 50.0 mg/kg/injection, schedule: Q01DX005 (ip), vehicle: Klucel (hydroxypropylcellulose) (HPC)
[5] = dose: 100.0 mg/kg/injection, schedule: Q01DX005 (ip), vehicle: Klucel (hydroxypropylcellulose) (HPC)
[6] = dose: 100.0 mg/kg/injection, schedule: Q04DX003 (ip), vehicle: saline
[7] = dose: 200.0 mg/kg/injection, schedule: Q04DX003 (ip), vehicle: saline
[8] = dose: 50.0 mg/kg/injection, schedule: Q01DX009 (ip), vehicle: saline with Tween-80
[9] = dose: 100.0 mg/kg/injection, schedule: Q01DX009 (ip), vehicle: saline with Tween-80
[10] = dose: 200.0 mg/kg/injection, schedule: Q01DX009 (ip), vehicle: saline with Tween-80
[11] = dose: 25.0 mg/kg/injection, schedule: Q01DX009 (ip), vehicle: saline with Tween-80
[12] = dose: 12.5 mg/kg/injection, schedule: Q01DX009 (ip), vehicle: Klucel (hydroxypropylcellulose) (HPC)
[13] = dose: 25.0 mg/kg/injection, schedule: Q01DX009 (ip), vehicle: Klucel (hydroxypropylcellulose) (HPC)
[14] = dose: 50.0 mg/kg/injection, schedule: Q01DX009 (ip), vehicle: Klucel (hydroxypropylcellulose) (HPC)

SMILES: COc1cc(C(=O)NC2CCc3cc(OC)c(OC)c(OC)c3-c3ccc(OC)c(=O)cc32)cc(OC)c1OC (stereo unspecified)
- T/C (dose: 1.25 mg/kg/injection, schedule: Q01DX009 (ip), vehicle: Klucel (hydroxypropylcellulose) (HPC)): 119 % of control
- T/C (dose: 2.5 mg/kg/injection, schedule: Q01DX009 (ip), vehicle: Klucel (hydroxypropylcellulose) (HPC)): 124 % of control
- T/C (dose: 10.0 mg/kg/injection, schedule: Q01DX009 (ip), vehicle: Klucel (hydroxypropylcellulose) (HPC)): 152 % of control and 154 % of control
- T/C (dose: 20.0 mg/kg/injection, schedule: Q01DX009 (ip), vehicle: Klucel (hydroxypropylcellulose) (HPC)): 155 % of control and 163 % of control

SMILES: COC1C(/C=C/c2cnc(N)s2)OC2OC(C)(C)OC21 (stereo unspecified)
- T/C (dose: 100.0 mg/kg/injection, schedule: Q04DX002 (ip), vehicle: saline with Tween-80): 102 % of control
- T/C (dose: 200.0 mg/kg/injection, schedule: Q04DX002 (ip), vehicle: saline with Tween-80): 102 % of control
- T/C (dose: 400.0 mg/kg/injection, schedule: Q04DX002 (ip), vehicle: saline with Tween-80): 115 % of control

SMILES: Cc1nnc(-n2nc(-c3ccc(Cl)cc3)cc2N)[nH]c1=O
- T/C [1]: 98 % of control
- T/C [2]: 106 % of control
- T/C [3]: 93 % of control

SMILES: CCOC(=O)CSc1nnc(-c2cc(OC)c(OCC)c(OC)c2)o1
- T/C (dose: 62.5 mg/kg/injection, schedule: Q01DX001 (ip), vehicle: Klucel (hydroxypropylcellulose) (HPC)): 102 % of control
- T/C (dose: 125.0 mg/kg/injection, schedule: Q01DX001 (ip), vehicle: Klucel (hydroxypropylcellulose) (HPC)): 102 % of control
- T/C (dose: 250.0 mg/kg/injection, schedule: Q01DX001 (ip), vehicle: Klucel (hydroxypropylcellulose) (HPC)): 100 % of control

SMILES: CC(=NCCCCN=C(C)c1cc(C)cc(Br)c1O)c1cc(C)cc(Br)c1O
- T/C (dose: 25.0 mg/kg/injection, schedule: Q01DX005 (ip), vehicle: Klucel (hydroxypropylcellulose) (HPC)): 100 % of control
- T/C [4]: 96 % of control
- T/C [5]: 95 % of control
- T/C (dose: 200.0 mg/kg/injection, schedule: Q01DX005 (ip), vehicle: Klucel (hydroxypropylcellulose) (HPC)): 98 % of control

SMILES: CC1(C)COC(=O)/C1=C\C#N
- T/C (dose: 50.0 mg/kg/injection, schedule: Q04DX003 (ip), vehicle: Klucel (hydroxypropylcellulose) (HPC)): 94 % of control and 98 % of control
- T/C (dose: 100.0 mg/kg/injection, schedule: Q04DX003 (ip), vehicle: Klucel (hydroxypropylcellulose) (HPC)): 105 % of control
- T/C [6]: 101 % of control
- T/C (dose: 200.0 mg/kg/injection, schedule: Q04DX003 (ip), vehicle: Klucel (hydroxypropylcellulose) (HPC)): 100 % of control and 97 % of control
- T/C [7]: 111 % of control
- T/C (dose: 400.0 mg/kg/injection, schedule: Q04DX003 (ip), vehicle: Klucel (hydroxypropylcellulose) (HPC)): 105 % of control
- T/C (dose: 400.0 mg/kg/injection, schedule: Q04DX003 (ip), vehicle: saline): 120 % of control

SMILES: O/N=C/C(=Nc1ccc2ccccc2c1)NO
- T/C (dose: 60.0 mg/kg/injection, schedule: Q01DX005 (ip), vehicle: Klucel (hydroxypropylcellulose) (HPC)): 102 % of control
- T/C (dose: 120.0 mg/kg/injection, schedule: Q01DX005 (ip), vehicle: Klucel (hydroxypropylcellulose) (HPC)): 98 % of control
- T/C (dose: 240.0 mg/kg/injection, schedule: Q01DX005 (ip), vehicle: Klucel (hydroxypropylcellulose) (HPC)): 98 % of control

SMILES: NC(=O)CC1(c2ccccc2)CCCCC1
- T/C [8]: 111 % of control
- T/C [9]: 102 % of control
- T/C [10]: 104 % of control

SMILES: O=C(O)c1cocc1C(=O)N1Cc2cc3ccccc3nc2C1
- T/C (dose: 8.0 mg/kg/injection, schedule: Q01DX009 (ip), vehicle: saline with Tween-80): 94 % of control
- T/C (dose: 16.0 mg/kg/injection, schedule: Q01DX009 (ip), vehicle: saline with Tween-80): 92 % of control
- T/C (dose: 32.0 mg/kg/injection, schedule: Q01DX009 (ip), vehicle: saline with Tween-80): 94 % of control
- T/C (dose: 64.0 mg/kg/injection, schedule: Q01DX009 (ip), vehicle: saline with Tween-80): 108 % of control
- T/C (dose: 128.0 mg/kg/injection, schedule: Q01DX009 (ip), vehicle: saline with Tween-80): 103 % of control

SMILES: CC(C)C1=CC2C3C(=O)NC(=O)C3C1C1C3C(=O)NC(=O)C3C21 (stereo unspecified)
- T/C (dose: 60.0 mg/kg/injection, schedule: Q01DX005 (ip), vehicle: saline): 98 % of control
- T/C (dose: 120.0 mg/kg/injection, schedule: Q01DX005 (ip), vehicle: saline): 100 % of control
- T/C (dose: 240.0 mg/kg/injection, schedule: Q01DX005 (ip), vehicle: saline): 100 % of control

SMILES: O=C1CC2C(=O)NC(=O)C2C(=O)N1 (stereo unspecified)
- T/C [1]: 104 % of control
- T/C [2]: 101 % of control
- T/C [3]: 99 % of control

SMILES: O=C(O)c1cccc2cccc(-c3c4ccc(=O)cc-4oc4cc(O)ccc34)c12
- T/C (dose: 60.0 mg/kg/injection, schedule: Q01DX005 (ip), vehicle: saline with Tween-80): 101 % of control
- T/C (dose: 120.0 mg/kg/injection, schedule: Q01DX005 (ip), vehicle: saline with Tween-80): 100 % of control
- T/C (dose: 240.0 mg/kg/injection, schedule: Q01DX005 (ip), vehicle: saline with Tween-80): 98 % of control

SMILES: Cc1ccccc1CS
- T/C [8]: 113 % of control
- T/C [9]: 113 % of control
- T/C [10]: 113 % of control

SMILES: CC1(C)CC(=O)C2OC21 (stereo unspecified)
- T/C (dose: 100.0 mg/kg/injection, schedule: Q04DX002 (ip), vehicle: saline): 107 % of control and 95 % of control
- T/C (dose: 200.0 mg/kg/injection, schedule: Q04DX002 (ip), vehicle: saline): 101 % of control
- T/C (dose: 400.0 mg/kg/injection, schedule: Q04DX002 (ip), vehicle: saline): 106 % of control and 107 % of control

SMILES: Cc1ccc(C(=O)Cc2ccc(C#N)cc2)cc1
- T/C [11]: 99 % of control
- T/C [8]: 118 % of control
- T/C [9]: 108 % of control
- T/C [10]: 99 % of control

SMILES: CN1CCC/C1=C/C(=O)c1ccccc1
- T/C [6]: 100 % of control
- T/C [7]: 111 % of control

SMILES: O=c1[nH]ccc2nncn12
- T/C (dose: 100.0 mg/kg/injection, schedule: Q01DX001 (ip), vehicle: saline with Tween-80): 100 % of control
- T/C (dose: 200.0 mg/kg/injection, schedule: Q01DX001 (ip), vehicle: saline with Tween-80): 106 % of control
- T/C (dose: 400.0 mg/kg/injection, schedule: Q01DX001 (ip), vehicle: saline with Tween-80): 99 % of control

SMILES: Cc1cc2ccccc2c2nncn12
- T/C [8]: 103 % of control
- T/C [9]: 103 % of control

SMILES: CCCCCCCCCCCCCCCCCCNCCC#N
- T/C [12]: 101 % of control
- T/C [13]: 98 % of control and 100 % of control
- T/C [14]: 98 % of control and 89 % of control (2×)
- T/C (dose: 100.0 mg/kg/injection, schedule: Q01DX009 (ip), vehicle: Klucel (hydroxypropylcellulose) (HPC)): 99 % of control and 87 % of control

SMILES: CCCCCOCC(=O)OC
- T/C [8]: 98 % of control
- T/C [9]: 102 % of control
- T/C [10]: 103 % of control

SMILES: CSC1(SC)CCN(C)C1=O
- T/C [11]: 90 % of control
- T/C [8]: 93 % of control
- T/C [9]: 92 % of control

SMILES: N#CN1C2CCC1CC(O)(c1ccccc1)C2 (stereo unspecified)
- T/C [1]: 104 % of control and 99 % of control
- T/C [2]: 102 % of control
- T/C [3]: 103 % of control

SMILES: CCC1C2Cc3ccc(O)cc3C1(CC)CCN2C (stereo unspecified)
- T/C (dose: 6.25 mg/kg/injection, schedule: Q01DX005 (ip), vehicle: saline with Tween-80): 99 % of control
- T/C (dose: 12.5 mg/kg/injection, schedule: Q01DX005 (ip), vehicle: saline with Tween-80): 99 % of control
- T/C (dose: 25.0 mg/kg/injection, schedule: Q01DX005 (ip), vehicle: saline with Tween-80): 95 % of control
- T/C [4]: 103 % of control
- T/C [1]: 100 % of control
- T/C [5]: 106 % of control

SMILES: COc1cccc2c1C(=O)c1c(O)c3c(c(O)c1C2=O)C[C@@](O)(C(C)=O)CC3OC1CC(NC(=O)CCN)C(O)C(C)O1 (stereo partly specified)
- T/C (dose: 6.25 mg/kg/injection, schedule: Q04DX003 (ip), vehicle: saline): 97 % of control
- T/C (dose: 12.5 mg/kg/injection, schedule: Q04DX003 (ip), vehicle: saline): 100 % of control
- T/C (dose: 25.0 mg/kg/injection, schedule: Q04DX003 (ip), vehicle: saline): 103 % of control
- T/C (dose: 50.0 mg/kg/injection, schedule: Q04DX003 (ip), vehicle: saline): 97 % of control

SMILES: Cc1cc(N2C(=O)CCSC2=S)ccc1Cl
- T/C [12]: 120 % of control
- T/C [13]: 119 % of control
- T/C [14]: 109 % of control and 114 % of control
- T/C (dose: 50.0 mg/kg/injection, schedule: Q01DX009 (ip), vehicle: suspension in saline): 97 % of control
- T/C (dose: 100.0 mg/kg/injection, schedule: Q01DX009 (ip), vehicle: suspension in saline): 90 % of control
- T/C (dose: 200.0 mg/kg/injection, schedule: Q01DX009 (ip), vehicle: Klucel (hydroxypropylcellulose) (HPC)): 102 % of control
- T/C (dose: 200.0 mg/kg/injection, schedule: Q01DX009 (ip), vehicle: suspension in saline): 92 % of control
